Patent publication US20060013801A1, “Prevention of and therapy for radiation toxicity of normal tissues using drugs which block il-1 activity” (priority 2002, published 2006)
Entries after “also recorded” stand apart in the source; their conditions may differ.

What was measured:
Rantes mRNA = test: RNase protection assay, Rantes mRNA expression; settings: 60 Gy, 50 mg/kg Celebrex, vs 7.4±1.6 control, P<0.05, ratio to GAPDH or L32 mRNA
MIP-2 mRNA = test: RNase protection assay, MIP-2 mRNA expression
MCP-1 mRNA = test: RNase protection assay, MCP-1 mRNA expression; settings: 60 Gy
[1] = tested on: radiation (60 Gy) induced skin damage in MCa-35 mammary tumor-bearing mice; test: Radiation induced skin damage by 5-scales Skin Scoring System; type: in vivo, C3H/HeN mice; settings: for mice with severe skin damage (grades 4-5): 20 days after radiation
Method: (§1) Isotransplantable murine MCa-35 mammary tumor cells was inoculated i.m. into right hind thighs of 6-7 week-old female C3H/HeN mice (NCI, Fredrick, Md.). […] Mice were sacrificed 20 days after radiation.
(§2) Four experiment groups were used. […] Group 1 was radiation alone; mice in group 2 were given 50 mg/kg Celebrex 2 hours before radiation (2 hr pre-radiation); mice in group 3 and 4 were received the same amount of Celebrex at day 2 or day 7 post-radiation. […] All mice were sacrificed 20 day after radiation.
Radiation induce skin damage was assessed using 5-scales Skin Scoring System. 20 days after single 60 Gy radiation, mice from each treatment group were determined blindly for the degree of skin damage by three investigators. Grade 1: normal skin; grade 2: slight hair loss in irradiated area; grade 3: radish and swollen tissue; grad 4: small area erosion; grade 5: small ulceration. Grades 2-3 is referred as mild, and grades 4-5 is considered as severe skin damage.

[2] = tested on: MCa-35 tumor and overlaying skin; test: Histology of irradiated skin and MCa-35 tumor; type: in vivo, C3H/HeN mice
Excerpt: as §1
Tumors and the overlaying skin tissues were removed for histology and RNA preparation. Irradiated tissues (tumor and skin) were also collected for making paraffin blocks for immunohistochemical staining. Guidelines for the humane treatment of animals were followed as approved by the University of Rochester Committee on Animal Resources.
as §2
Immunohistochemistry methods have previously been described in detail. Immediately following cryostat sectioning, tissue slices (normal muscle and tumor) were stained with CD31 antibody (PharMingen Calif.) for determination of total vasculature. The stained sections were imaged using an epi-fluorescence equipped microscope, digitized (3-CCD camera), background-corrected, and image-analyzed using Image Pro software (Media Cybernetics, Mass.) and a 450 MHz Pentium computer. Color images from individual microscope fields were automatically acquired and digitally combined to form four montages of the tumor cross-section (total area=15.5 mm2) using a motorized stage and controller. The image montages were processed to enhance the contrast between background and CD31 staining. From the enhanced images, locations of CD31-stained vessels were recorded. The quantitative vascular information was analyzed using custom Fortran programs to perform a “closest individual” analysis as previously described. Briefly, the distances from computer-superimposed sampling points to the nearest blood vessel were determined. […]

[3] = tested on: C-C and C-X-C chemokine receptors mRNA; test: RNase protection assay, C-C and C-X-C chemokine receptor mRNA expression; type: in vivo, C3H/HeN mice
Method: as §1, §2
Total RNA was isolated from tumors and skin overlying tumors, respectively, with 9-10 mice in each treatment group by pulverizing the frozen tissue, and dissolved in TRI Reagent (Molecular Research Center, Ohio) according to the manufacturer's specifications.
Differences were considered significant for p<0.05.

Question: Which “Rantes mRNA expression in irradiated skin tissues” value (Rantes mRNA) does the source give for Cc1ccc(-c2cc(C(F)(F)F)nn2-c2ccc(S(N)(=O)=O)cc2)cc1 [Celebrex] here?
Answer: 2.3±1.1

Question: What about the “tumor skin with high MIP-2 mRNA expression” value (MIP-2 mRNA; after Celebrex treatment, 37.5% of mice with radiation alone) of the same molecule?
Answer: 14.3%-28.6%

Question: And the “effect on tumor MIP-2 mRNA” value (MIP-2 mRNA; tumor tissue, 60 Gy)?
Answer: did not significantly alter

Question: What about the “MCP-1 mRNA expression in irradiated skin tissues” value (MCP-1 mRNA; irradiated skin, 50 mg/kg Celebrex, vs 18.8±3.2 control, p<0.05, ratio to GAPDH or L32 mRNA) of the same molecule?
Answer: 10.2±1.1

Question: And the “reduction of MCP-1 mRNA expression in tumor tissues” value (MCP-1 mRNA; tumor tissue)?
Answer: not in tumor tissues

Question: And the “effect on radiation induced normal skin damage” value ([1]; 50 mg/kg daily gavage, 15 doses in three weeks, single 60 Gy)?
Answer: significantly reduced; also recorded: less radiation-induced skin damage

Question: And the “mice with severe skin damage (grades 4-5)” value (“mice with severe skin damage” below) ([1]; 50 mg/kg gavage started 2 hr pre-radiation, 15 doses, single 60 Gy)?
Answer: 17.6%

Question: And the “mice with severe skin damage” value ([1]; 50 mg/kg gavage started day 2 post-radiation, 15 doses, single 60 Gy)?
Answer: 5.3%

Question: What about the “mice with severe skin damage” value ([1]; 50 mg/kg gavage started day 7 post-radiation, 10 doses, single 60 Gy) of the same molecule?
Answer: 11.1%

Question: And the “treated mice that still developed moderate or severe skin damage after radiation” value ([1]; 60 Gy, Celebrex-treated mice)?
Answer: 15-30%

Question: And the “effect on MCa-35 tumor histology (blood vessels, necrosis)” value ([2]; oral administration, compared with saline-treated controls)?
Answer: reduction of blood vessels

Question: What about the “inflammation and inflammatory cell infiltration in the dermis” value ([2]; pre- (2 hr) or post-radiation (day 2 or day 7) treatment, compared with saline-treated controls) of the same molecule?
Answer: less inflammation and cellular component infiltration in the dermis; also recorded: less infiltration of inflammatory cells

Question: What about the “infiltration of inflammatory cells in tumor tissue” value ([2]; tumor tissue, compared with saline controls) of the same molecule?
Answer: not obviously altered

Question: What about the “CXCR4 mRNA expression” value ([3]; skin of Celebrex-treated mice with less radiation-induced skin damage) of the same molecule?
Answer: significantly reduced

Question: What about the “mRNA expression of both C-C and C-X-C chemokine receptors in tumor skin” value ([3]; tumor skin, 60 Gy, not in tumor tissues) of the same molecule?
Answer: decrease mRNA expression
